{"source": "patent US6444811B1", "about": "“Pyrazinones, compositions containing such compounds and methods of use” (Merck Frosst Canada & Co., priority 1999, dated 2002)", "origin": "cited, not measured here", "key": {"[1]": {"target": "T1, caspase-3 (Homo sapiens, UniProt P42574)", "T1 sequence (P42574 29-175 limits assumed)": "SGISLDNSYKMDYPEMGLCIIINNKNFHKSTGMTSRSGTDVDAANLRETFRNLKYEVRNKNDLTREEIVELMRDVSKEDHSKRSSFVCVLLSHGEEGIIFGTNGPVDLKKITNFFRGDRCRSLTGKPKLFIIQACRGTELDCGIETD", "T1 sequence (P42574 176-277 limits assumed)": "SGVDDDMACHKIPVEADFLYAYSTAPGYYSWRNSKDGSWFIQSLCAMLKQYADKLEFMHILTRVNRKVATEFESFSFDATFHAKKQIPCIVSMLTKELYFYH"}, "[2]": {"target": "T2, caspase-1 (Homo sapiens, UniProt P29466)", "T2 sequence (P29466 120-297 limits assumed)": "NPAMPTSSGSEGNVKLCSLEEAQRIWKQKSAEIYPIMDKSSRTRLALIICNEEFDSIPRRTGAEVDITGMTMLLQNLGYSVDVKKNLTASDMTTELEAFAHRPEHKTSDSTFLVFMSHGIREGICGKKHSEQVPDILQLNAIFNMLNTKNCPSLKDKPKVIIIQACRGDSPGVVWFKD", "T2 sequence (P29466 317-404 limits assumed)": "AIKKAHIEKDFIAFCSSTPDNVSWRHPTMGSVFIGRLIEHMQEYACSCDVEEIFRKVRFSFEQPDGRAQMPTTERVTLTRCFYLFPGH"}}}
{"substance": "Ac-YVAD-CHO", "values": [{"measurement": "Ki", "setting": "[1]", "value": 12, "unit": "µM"}, {"measurement": "Ki", "setting": "[2]", "value": "< 0.001", "unit": "µM"}, {"measurement": "kon caspase-1", "setting": "[2]; slow-binding time-dependent inhibition", "value": 380000, "unit": "M⁻¹ s⁻¹"}]}
